Where a name gives a salt, the structure may show the parent alone. Where only a bound is given, the exact number is not on record here.

For this assay, the system named is spiral strips of the pulmonary artery of the guinea pig. In words: relaxant effect on potassium-depolarized, CaCl2-contracted spiral strips of the pulmonary artery of the guinea pig. Particulars: Cavia porcellus, 40 mmol/l potassium, contraction by 0.5 mmol/l CaCl2, cumulative addition, average value of 4 to 6 vessel strips, read-out: IC50: concentration of the test substance which inhibits the contraction by 50%. The method, then:
The pharmacological action of the compounds of the formula I was determined by a modified method of Godfraind and Kaba (Arch. Int. Pharmacodyn. Ther. 196, (Suppl ) 35 to 49, 1972) and of Schuman et al. (Naunyn-Schmiedeberg'sArch. Pharmacol. 289, 409 to 418, 1975). In this connection, spiral strips of the pulmonary artery of the guinea pig are depolarized using 40 mmol/l of potassium after equilibration in calcium-free Tyrode solution. An addition of 0.5 mmol/l of CaCl2 then induces a contraction. The relaxant effect of the test substance is determined by cumulative addition in semilogarithmic graduated concentrations. The concentration of the test substance which inhibits the contraction by 50% (=IC50, mol/l) is determined from the concentration-effect curve (abscissa: --log mol/l of test substance, ordinate % inhibition of the maximum contraction, average value of 4 to 6 vessel strips).
Turning to `CCOC(=O)[N-]c1cn(N2CCOCC2)n[o+]1` [molsidomine, N-ethoxycarbonyl-3-morpholino-sydnone imine, reference compound], the IC50 is > 300000 nM.
Take `CC1CCCC(C)N1[n+]1noc([N-]C(=O)c2ccccc2)c1CSCc1ccccc1` (stereo not shown) [Example 10, N-Benzoyl-4-benzylthiomethyl-3-(2,6-dimethylpiperidino)sydnone imine]: the IC50 came to 2000 nM.
For the compound `CC1CCCC(C)N1[n+]1[n-]oc(=N)c1COc1ccccc1` (stereo not shown) [Example 13, 3-(2,6-Dimethylpiperidino)-4-phenoxymethylsydnone imine hydrochloride], the IC50 is 2000 nM.
As to `N=c1o[n-][n+](N2CCOCC2)c1CSCc1ccccc1` [Example 7, 4-Benzylthiomethyl-3-morpholinosydnone imine hydrochloride], the IC50 came to 700 nM.
As to `CC1CCCC(C)N1[n+]1[n-]oc(=N)c1CSCc1ccccc1` (stereo not shown) [Example 8, 4-Benzylthiomethyl-3-(2,6-dimethylpiperidino)sydnone imine hydrochloride], the IC50 turned out to be 800 nM.
For the compound `CC1CCCC(C)N1[n+]1[n-]oc(=N)c1CSc1ccccc1` (stereo not shown) [Example 5, 3-(2,6-Dimethylpiperidino)-4-phenylthiomethylsydnone imine hydrochloride], the IC50 amounted to 1100 nM.
The same measure for `CC(CSCc1ccccc1)c1c(=N)o[n-][n+]1N1CCOCC1` (stereo not shown) [Example 12, 4-(2-Benzylthio-1-methylethyl)-3-morpholinosydnone imine hydrochloride]: 500 nM.

(Values after patent US5079244A, “Substituted 3-aminosydnone imines, pharmaceutical compositions containing same, and process for administering same” (Cassella Aktiengesellschaft, priority 1989, dated 1992).)
